Reference: ChEMBL document CHEMBL1134873, “Synthesis and antiparasitic activity of 1H-benzimidazole derivatives” (Bioorg Med Chem Lett, 2002)

Columns and labels:
Trichinella spiralis [1] = assay: Percentage viability reduction of Trichinella spiralis muscle larvae after 3 days of incubation; type: functional; design: concentration or dose not given beside the values
Entamoeba histolytica = assay: The compound was tested in vitro against the protozoa Entamoeba histolytica, for the inhibition of tubulin polymerization in rat brain; type: functional
Giardia intestinalis = assay: The compound was tested in vitro against the protozoa Giardia lamblia, for the inhibition of tubulin polymerization in rat brain; type: functional; settings: Giardia duodenalis
Trichinella spiralis [2] = assay: Percentage viability reduction of Trichinella spiralis muscle larvae after 3 days of incubation; No reduction observed; type: functional, organism-based

Compound | Viability (Trichinella spiralis [1]) | IC50 (Entamoeba histolytica) | IC50 (Giardia intestinalis) | Viability (Trichinella spiralis [2])
Nc1nc2ccccc2[nH]1 | 9% | 114 nM | 1900 nM | 
Cc1nc2cc(Cl)ccc2[nH]1 | 14% | 84 nM | 156 nM | 
CCCSc1ccc2[nH]c(NC(=O)OC)nc2c1 [ALBENDAZOLE] | 34% |  |  | 
COC(=O)Nc1nc2ccccc2[nH]1 [CARBENDAZIM] |  | 204 nM | 57 nM | No reduction observed
Cc1nc2cc(Cl)c(Cl)cc2[nH]1 | 8% | 25 nM | 65 nM | 
COC(=O)Nc1nc2cc(Cl)c(Cl)cc2[nH]1 | 14% | 46 nM | 127 nM | 
COC(=O)Nc1nc2cc(Cl)ccc2[nH]1 | 19% | 350 nM | 66 nM | 
CSc1nc2cc(Cl)ccc2[nH]1 | 15% | 192 nM | 5 nM | 
Clc1cc2nc[nH]c2cc1Cl | 18% | 96 nM | 358 nM | 
CSc1nc2cc(Cl)c(Cl)cc2[nH]1 | 17% | 356 nM | 227 nM | 
c1ccc2[nH]cnc2c1 [BENZIMIDAZOLE] |  | 42 nM | 8 nM | No reduction observed
Clc1ccc2[nH]cnc2c1 | 27% | 39 nM | 282 nM | 
Sc1nc2cc(Cl)c(Cl)cc2[nH]1 | 23% | 55 nM | 78 nM | 
CSc1nc2ccccc2[nH]1 |  | 393 nM | 45 nM | No reduction observed
Sc1nc2ccccc2[nH]1 [2-MERCAPTOBENZIMIDAZOLE] | 11% | 133 nM | 40 nM | 
Nc1nc2ccc(Cl)cc2[nH]1 | 17% | 125 nM | 30 nM | 
Cc1nc2ccccc2[nH]1 |  | 7 nM | 317 nM | No reduction observed
Sc1nc2cc(Cl)ccc2[nH]1 | 13% | 5 nM | 81 nM | 
Nc1nc2cc(Cl)c(Cl)cc2[nH]1 | 2% | 59 nM | 218 nM | 
